This note sets out measurements from PubChem BioAssay (NCI).

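Five concentrations, 48 hours, 96-well plates. The concentration for full growth arrest is given as TGI.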 Bounds are passed on as bounds.

Test in all cases: inhibition of tumour cell growth, NCI panel, 48 h
Experiment [1] relates to EKVX NSCLC.
For experiment [2], the system named is HS 578T breast.
Experiment [3] relates to HCT-116 colon.
Experiment [4] concerns ACHN renal.
For experiment [5], the system named is IGROV1 ovarian.
Experiment [6] deals with SK-MEL-5 melanoma.
Experiment [7] has as its system M14 melanoma.
For experiment [8], the system named is K-562 leukemia.
Experiment [9] deals with SW-620 colon.
Experiment [10] concerns SR leukemia.

As to `CC(C)(C)OC(=O)N1[C@@H]2Cc3ccc(N)cc3[C@@]1(C)c1ccccc12`, the TGI in [1] was above 100 µM; in experiment [2], above 100 µM; in [3], 37.1 µM; in [4] it was above 100 µM; in experiment [5], above 100 µM; in experiment [6], 12.4 µM. Moreover, the figures for the TGI in [7], in [8] and in [9] were 51.8 µM, 62.6 µM and above 100 µM, respectively.
For the compound `CC12CCC(C(=Nc3cc(C(F)(F)F)cc(C(F)(F)F)c3)C1=O)C2(C)C` (stereo not given), the TGI in experiment [1] was above 100 µM; in [3] it was 99 µM; in [4] it was above 100 µM; in experiment [5], 76.1 µM; in experiment [6] it was above 100 µM; in experiment [7] it was above 100 µM. Moreover, the TGI was 46.4 µM in [10], above 100 µM in [8] and above 100 µM in experiment [9].
As for `O=C(CSc1nnc(-c2ccc(N=Cc3ccc(Cl)cc3)cc2)o1)Nc1ccc([N+](=O)[O-])cc1`, the TGI in [1] was above 100 µM; in [3], 9.43 µM; in [4], 25.7 µM; in experiment [6], 67.9 µM; in experiment [7], 42 µM; in [10], 48.7 µM. The TGI in [8] is 97.1 µM; in experiment [9] it was 36.3 µM.
`COc1cccc(-c2nccc3c(OCc4ccccc4)c(OC)c(OC)cc23)c1`: the TGI in [1], in experiment [3], in experiment [4], in experiment [5], in experiment [6] and in experiment [7] was above 100 µM throughout. In addition, the TGI in experiment [10], in experiment [8] and in [9] was above 100 µM in each case.
With `O=C1CS(=O)(=O)C(c2cccc(Oc3ccccc3)c2)N1c1ccccc1` (stereo not given), the TGI in [1] stood at 54.2 µM; in experiment [2] it was 69.9 µM; in experiment [3] it was 30.8 µM; in experiment [4], 64.8 µM; in experiment [6], 29.3 µM; in [7], 38.7 µM. In addition, the TGI was 57 µM in [10], 60.1 µM in [8] and above 100 µM in experiment [9].
For the compound `CCOC(=O)C(=O)CC(=O)C1=C(c2ccccc2OC)CC(c2cccs2)=CC1=O`, the TGI in experiment [1], in experiment [2], in experiment [3], in experiment [4], in experiment [5] and in [6] was above 100 µM throughout. Besides, the TGI in [7], in experiment [8] and in [9] was above 100 µM each time.
Consider `O=C(c1ccc(O)c([N+](=O)[O-])c1)c1ccc(O)c([N+](=O)[O-])c1`, for which the TGI in [1], in [2], in [3], in [4], in [5] and in experiment [6] was above 100 µM throughout. Moreover, the TGI in [7], in experiment [8] and in experiment [9] was above 100 µM throughout.
In the case of `N#CC[N+]1(Cc2ccccn2)CCCC1`, the TGI in experiment [1], in experiment [2], in [3], in experiment [4], in experiment [5] and in experiment [6] was above 100 µM in each case. The TGI in experiment [7], in experiment [8] and in experiment [9] was above 100 µM each time.
`Cn1ccnc1CCc1ccc(Cl)c(Cl)c1`: the TGI in [3], in experiment [4], in [5], in experiment [6], in experiment [7] and in experiment [10] was above 100 µM in each case. For the same compound, the TGI in [8] and in experiment [9] was above 100 µM throughout.
Turning to `N[C@H](CCC(=O)NCP(=O)(O)O)C(=O)O`, the TGI in [1], in experiment [2], in experiment [3], in experiment [4], in experiment [5] and in [6] was above 100 µM in each case. Also, the TGI in experiment [10], in [8] and in experiment [9] was above 100 µM in each case.
Turning to `Cc1c(O)c(OC2OC(CO)C(O)C(O)C2O)cc2c1C=C[C@@H]1[C@@]2(C)C(=O)C[C@]2(C)[C@@H]([C@@](C)(O)C(=O)CCC(C)(C)O)[C@H](O)C[C@@]12C` (stereo not given in full), the TGI was 91.4 µM in experiment [1]; 37.8 µM in experiment [3]; 36.2 µM in [4]; 44.3 µM in experiment [5]; 43.6 µM in [6]; 68.9 µM in [7]. In addition, the results for the TGI in [10], in experiment [8] and in [9] were above 100 µM, above 100 µM and 79.9 µM, respectively.
Consider `COC1=C2C=[N+](C)C3C(=C2C=CC1OC)Cc1cc2c(cc13)OCO2` (stereo not given), for which the TGI in [1] amounted to 35.6 µM; in experiment [2], 51.2 µM; in experiment [3] it was 31.5 µM; in experiment [6], 23.2 µM; in experiment [7], 30.1 µM; in experiment [10] it was 42 µM. The TGI in experiment [8] is 42.5 µM; in experiment [9] it was above 100 µM.
Take `O=C(N/N=C(/COc1ccccc1Cl)N=Cc1ccncc1)c1ccncc1`: the TGI in experiment [1], in experiment [2], in experiment [3], in experiment [4], in experiment [5] and in experiment [7] was above 100 µM throughout. The TGI in [8] and in experiment [9] was above 100 µM in each case.
In the case of `C=Cc1nc(C#N)c(N)o1`, the TGI in experiment [1], in experiment [2], in experiment [3], in experiment [5], in [6] and in [7] was above 100 µM in each case. Also, the TGI in experiment [8] and in experiment [9] was above 100 µM each time.
Take `CC(=O)OC(C)(C)CCC(=O)[C@](C)(O)[C@H]1[C@H](O)C[C@@]2(C)[C@@H]3CC=C4C(C)=C(OC5OC(CO)C(O)C(O)C5O)C(=O)C[C@@H]4[C@]3(C)C(=O)C[C@]12C` (stereo not given in full): the TGI in experiment [1], in [3], in experiment [4], in experiment [5], in experiment [6] and in experiment [7] was above 100 µM throughout. The TGI in experiment [10], in experiment [8] and in [9] was above 100 µM each time.
